Measured values taken from publication PMC4357465, “Tool Compounds Robustly Increase Turnover of an Artificial Substrate by Glucocerebrosidase in Human Brain Lysates” (PLoS ONE, 2015).
Where “and” joins values, the source holds several entries; their conditions need not be identical. Equal entries are not always repeated. Where two headings read alike, the source gives them in different places.

Tests used:
Type in all cases: biochemical
[1] = molecular target: T1, purified human GBA1 (Homo sapiens, UniProt P04062); test: GBA1 enzymatic cell-free assay, turnover of 4MUG
T1 construct: purchased R&D Systems 7410-GH-10; host or cells: alternatively made in house: baculovirus (pFastBac-1), expressed in SF-9 or SF-21 cells, purified from conditioned media
T1 sequence (P04062 40-536): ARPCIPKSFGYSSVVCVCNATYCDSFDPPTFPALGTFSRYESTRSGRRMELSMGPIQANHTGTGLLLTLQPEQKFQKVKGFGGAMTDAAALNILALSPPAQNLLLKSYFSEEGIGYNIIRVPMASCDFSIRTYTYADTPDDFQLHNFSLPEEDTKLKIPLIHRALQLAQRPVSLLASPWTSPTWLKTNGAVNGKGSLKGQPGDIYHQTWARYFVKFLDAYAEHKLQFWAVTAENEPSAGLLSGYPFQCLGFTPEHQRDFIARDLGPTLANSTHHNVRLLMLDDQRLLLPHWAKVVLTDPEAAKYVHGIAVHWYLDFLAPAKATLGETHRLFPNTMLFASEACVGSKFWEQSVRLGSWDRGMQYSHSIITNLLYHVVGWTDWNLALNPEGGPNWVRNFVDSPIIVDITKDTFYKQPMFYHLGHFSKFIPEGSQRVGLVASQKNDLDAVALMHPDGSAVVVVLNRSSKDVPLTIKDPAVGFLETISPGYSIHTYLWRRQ
Description: After incubation, 100 μl of assay buffer was added to the plate. The assay buffer was composed of 0.1 M citric acid and 0.2 M sodium phosphate dibasic adjusted to pH = 5.4 unless stated otherwise (McIlvaine Buffer). […] For IC50 and EC50 experiments using compounds an assay buffer of pH 5.4 was used.
The substrate, 4-methylumbelliferyl β-D-glucopyranoside (4MUG, Sigma, M3633) was then added to the plate to a final concentration of 1.7 mM (25 μl). 4MUG was freshly solubilized in water at 37°C prior to each experiment. The recombinant protein, compound, assay buffer, and substrate were incubated at 37°C for 30 minutes.
The specific activity was calculated off the 4MU standard curve by converting the relative fluorescence units (RFUs) to the concentration of the fluorescent product (GraphPad Prism 5.1). This interpolated value was then used to calculate the specific activity of the recombinant protein which was expressed as nmol/hr/ng protein for recombinant protein and nmol/hr/mg for tissue lysates (GBA1 tissue assay). The standard curve was always diluted in the same assay buffer as the samples, including the same pH. For experiments testing activity of GBA1 at different pH, a standard curve for each pH condition was used to calculate specific activity. When testing different pH conditions, buffer solutions were adjusted to obtain the desired pH using the McIlvaine’s Buffer recipe, and the pH of the buffer was verified. All assay buffers used in the pH experiments contained sodium taurocholate to a final concentration of 3.1 mM.
In experiments directly comparing enzymatic activities of GBA1, GBA2 and GBA3 (S1 Fig., S2 Fig. c, d) the following conditions were used. […] A 10-fold intermediate solution of compound serial dilution was prepared in an assay buffer; half log dilutions were used. […] 2 mM solution of 4MUG was prepared in an assay buffer. To start the reaction, 4.5 μl/well of this solution was added to the enzyme plate and was incubated for 30 minutes at 37°C. To stop the reaction, a 1M glycine solution, adjusted to pH = 10 using 1M NaOH was used. […] To test the effect of sodium taurocholate (Sigma, T4009), the assay was performed using the same procedure described in this paragraph. The assay buffer contained either 0mM (same as above), 3 mM, 7 mM or 20 mM Sodium Taurocholate.

[2] = molecular target: T2, GBA1 in lysates from human cortex (Homo sapiens, UniProt P04062); test: GBA1 tissue assay, 4MUG turnover in human cortex lysates; details: human cortex lysate 10 μg, with sodium taurocholate
T2 construct: Human cortex samples were obtained from deceased aged Caucasian subjects without any diagnosis of neurodegenerative disorders; tissue Tissue Solutions; Proteogenex; host or cells: human cortex (post mortem)
T2 sequence (P04062 40-536): T1 sequence (P04062 40-536)
Description: (§1) Brain lysates were prepared by mechanical homogenization of mouse brain and human cortex in 10x weight/volume of the homogenization buffer used in the GBA1 enzymatic cell-free assay (250 mM Sucrose, 10 mM Tris pH = 7.5, 1 mM EDTA, 0.25% Triton X-100 solution, protease inhibitors, phosphatase inhibitors I and III, PMSF). Human cortex was acquired from brain banks (Tissue Solutions: http://www.tissue-solutions.com; Proteogenex: http://www.proteogenex.com). Human cortex samples were obtained from deceased aged Caucasian subjects without any diagnosis of neurodegenerative disorders. Mouse brain was obtained from 4–7 month old C57BL/6J mice. All mouse experiments were performed in accordance with the specifications of both the National Institutes of Health Guide for the Care and Use of Laboratory Animals, studies were approved by Pfizer’s Internal Animal Care and Use Committee (IACUC).
(§2) Prior to 30 min lysis on ice, human brain samples were also sonicated for 15 seconds as this step was needed to fully extract GBA1 (data not shown). Samples were then centrifuged at 20,000g for 15 minutes at 4°C. Supernatant was collected, and used for activity assays and Western blots. Protein concentration was determined using the Pierce BCA protein assay kit. Tissue lysates and pellets were stored at -80°C until use. For enzymatic activity assays, lysates were subjected only to one free-thaw cycle. Independent replicates were obtained using brain lysates from either different human subjects or different mice.
(§3) GBA1 activity in tissues was measured using the assay conditions described in the previous section. 10 μg of protein/well was used for the activity experiments, unless stated otherwise. Brain tissue lysates were diluted to 0.4 μg/ μl of protein in the same homogenization buffer, as described above. 25 μl of diluted lysate was added to the plate (Costar, 7200567). Lysates were then incubated on ice in the presence or absence of a compound for 30 minutes. 100 μl of assay buffer was then added to the plate. The same assay buffer was used as in the cell free/recombinant experiments and processed as described above.

[3] = tested on: GBA1 in lysates from human cortex; test: as above; details: human cortex lysate 10 μg, without sodium taurocholate
Description: as §1, §2, §3

`O[C@H]1[C@H](O)[C@@H](O)[C@@H]2O[C@@H]2[C@@H]1O` [CBE] was tested, and the “inhibition of GBA1 activity” value ([1]; 1 mM) was “more than 90%”, the “% inhibition + NaTc” value ([2]; 1mM) was 86 ± 4% and ~ 90% and the “% inhibition - NaTc” value ([3]; 1mM) was 31 ± 8% and ~ 30%.
With `OC[C@H]1CNC[C@@H](O)[C@@H]1O` [Isofagomine, isofagomine] the inhibition at 1 µM ([1]; read-out: inhibition of GBA1 activity) was > 90%, the inhibition at 1 µM ([1]; with sodium taurocholate, read-out: GBA1 % inhibition + NaTc) was 95.9 ± 3.2% and the inhibition at 1 µM ([1]; without sodium taurocholate, read-out: GBA1 % inhibition - NaTc) was 92.1 ± 2.3%. The “% inhibition + NaTc” value ([2]; 1 μM) was ~ 90%, the inhibition at 1 µM ([2]; 1 μM, read-out: % inhibition + NaTc) was 92 ± 2% and the “% inhibition - NaTc” value ([3]; 1 μM) was 27 ± 4%. For the same compound, the “% inhibition - NaTc” value ([3]; 1 μM, listed as isofagomine) was ~ 30%.
